The text below walks through data of patent publication US8580794B2 (AbbVie Inc., priority 2009, dated 2013).

In the experiment the target is GST-Bc1-2 (Homo sapiens, UniProt P10415). The experiment in a line: Time Resolved-Fluorescence Resonance Energy Transfer (TR-FRET) Bcl-2 binding assay with F-Bak peptide probe. Conditions: GST-Bcl-2 1 nM, F-Bak probe 100 nM, Tb-anti-GST 1 nM; '<' = below limit of detection; read-out: TR-FRET Bcl-2 Binding Ki. (In general: Time-resolved FRET reads energy transfer from a long-lived donor to a nearby acceptor.)
Sequence of GST-Bc1-2 (P10415 whole entry): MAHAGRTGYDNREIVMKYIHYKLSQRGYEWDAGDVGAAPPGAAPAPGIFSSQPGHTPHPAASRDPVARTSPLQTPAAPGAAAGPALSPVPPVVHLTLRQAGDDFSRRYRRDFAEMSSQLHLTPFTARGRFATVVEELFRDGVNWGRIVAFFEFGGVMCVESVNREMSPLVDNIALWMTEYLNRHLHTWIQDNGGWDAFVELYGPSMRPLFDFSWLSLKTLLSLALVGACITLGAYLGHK
As for `CC1(C)CCC(CN2CCN(c3ccc(C(=O)NS(=O)(=O)c4ccc(NC[C@@H]5CC[C@H](O)C5)c([N+](=O)[O-])c4)c(Oc4cnc5[nH]ccc5c4)c3)CC2)=C(c2ccc(Cl)cc2)C1` [Example 159, 4-(4-{[2-(4-chlorophenyl)-4,4-dimethylcyclohex-1-en-1-yl]methyl}piperazin-1-yl)-N-{[4-({[(1R,3S)-3-hydroxycyclopentyl]methyl}amino)-3-nitrophenyl]sulfonyl}-2-(1H-pyrrolo[2,3-b]pyridin-5-yloxy)benzamide], the Ki is < 0.01 nM.

With `CC1(C)CCC(CN2CCN(c3ccc(C(=O)NS(=O)(=O)c4ccc(N[C@H]5CCCNC5=O)c([N+](=O)[O-])c4)c(Oc4cnc5[nH]ccc5c4)c3)CC2)=C(c2ccc(Cl)cc2)C1` [Example 160, 4-(4-{[2-(4-chlorophenyl)-4,4-dimethylcyclohex-1-en-1-yl]methyl}piperazin-1-yl)-N-[(3-nitro-4-{[(3S)-2-oxopiperidin-3-yl]amino}phenyl)sulfonyl]-2-(1H-pyrrolo[2,3-b]pyridin-5-yloxy)benzamide], the Ki is < 0.01 nM. In the case of `CC1(C)CCC(CN2CCN(c3ccc(C(=O)NS(=O)(=O)c4ccc(NCC5CN(C(CF)CF)C5)c([N+](=O)[O-])c4)c(Oc4cnc5[nH]ccc5c4)c3)CC2)=C(c2ccc(Cl)cc2)C1` [Example 161, 4-(4-{[2-(4-chlorophenyl)-4,4-dimethylcyclohex-1-en-1-yl]methyl}piperazin-1-yl)-N-({4-[({1-[2-fluoro-1-(fluoromethyl)ethyl]azetidin-3-yl}methyl)amino]-3-nitrophenyl}sulfonyl)-2-(1H-pyrrolo[2,3-b]pyridin-5-yloxy)benzamide], the Ki was < 0.01 nM. In the case of `CC1(C)CCC(CN2CCN(c3ccc(C(=O)NS(=O)(=O)c4ccc(NCC5CN(C6COC6)C5)c([N+](=O)[O-])c4)c(Oc4cnc5[nH]ccc5c4)c3)CC2)=C(c2ccc(Cl)cc2)C1` [Example 162, 4-(4-{[2-(4-chlorophenyl)-4,4-dimethylcyclohex-1-en-1-yl]methyl}piperazin-1-yl)-N-[(3-nitro-4-{[(1-oxetan-3-ylazetidin-3-yl)methyl]amino}phenyl)sulfonyl]-2-(1H-pyrrolo[2,3-b]pyridin-5-yloxy)benzamide] it was < 0.01 nM; in that of `CC1(C)CCC(CN2CCN(c3ccc(C(=O)NS(=O)(=O)c4ccc(NCC5CCN(C6COC6)CC5)c([N+](=O)[O-])c4)c(Oc4cnc5[nH]ccc5c4)c3)CC2)=C(c2ccc(Cl)cc2)C1` [Example 163, 4-(4-{[2-(4-chlorophenyl)-4,4-dimethylcyclohex-1-en-1-yl]methyl}piperazin-1-yl)-N-[(3-nitro-4-{[(1-oxetan-3-ylpiperidin-4-yl)methyl]amino}phenyl)sulfonyl]-2-(1H-pyrrolo[2,3-b]pyridin-5-yloxy)benzamide], < 0.01 nM. Regarding `CC1(C)CCC(CN2CCN(c3ccc(C(=O)NS(=O)(=O)c4ccc(NCC5CCN(C6CC6)CC5)c([N+](=O)[O-])c4)c(Oc4cnc5[nH]ccc5c4)c3)CC2)=C(c2ccc(Cl)cc2)C1` [Example 164, 4-(4-{[2-(4-chlorophenyl)-4,4-dimethylcyclohex-1-en-1-yl]methyl}piperazin-1-yl)-N-[(4-{[(1-cyclopropylpiperidin-4-yl)methyl]amino}-3-nitrophenyl)sulfonyl]-2-(1H-pyrrolo[2,3-b]pyridin-5-yloxy)benzamide], the Ki is < 0.01 nM.

Consider `CC1(C)CCC(CN2CCN(c3ccc(C(=O)NS(=O)(=O)c4ccc(NCC5CN(CCF)CCO5)c([N+](=O)[O-])c4)c(Oc4cnc5[nH]ccc5c4)c3)CC2)=C(c2ccc(Cl)cc2)C1` (stereo not shown) [Example 165, 4-(4-{[2-(4-chlorophenyl)-4,4-dimethylcyclohex-1-en-1-yl]methyl}piperazin-1-yl)-N-{[4-({[4-(2-fluoroethyl)morpholin-2-yl]methyl}amino)-3-nitrophenyl]sulfonyl}-2-(1H-pyrrolo[2,3-b]pyridin-5-yloxy)benzamide], for which the Ki was < 0.01 nM.

Usually Ki stands for a dissociation constant, usually derived from enzyme kinetics or from competition with a known ligand.
